The text below walks through data of patent US20080220977A1, “Computational strategy for discovering druggable gene networks from genome-wide RNA expression profiles” (GNI Ltd., priority 2005, published 2008).

Each structure is given as a SMILES string.

The test system of this assay is human endothelial cells. Put plainly: Fenofibrate time-course microarray in human endothelial cells, GO Term Finder clusters of selected genes. The note with it: 25 μM fenofibrate, 18 hours microarray.

As to `CC(C)OC(=O)C(C)(C)Oc1ccc(C(=O)c2ccc(Cl)cc2)cc1` [fenofibrate], under “overexpressed genes”, the “# genes in GO annotation: cellular lipid metabolism (GO:0044255)” value is reported as 21, the “# genes in GO annotation: cholesterol biosynthesis (GO:0006695)” value was 5, the “# genes in GO annotation: cholesterol metabolism (GO:0008203)” value is 7 and the “# genes in GO annotation: lipid metabolism (GO:0006629)” value is given as 25. For the setting “overexpressed genes”, the “# genes in GO annotation: steroid biosynthesis (GO:0006694)” value is listed as 7, the “# genes in GO annotation: steroid metabolism (GO:0008202)” value is on record as 10, the “# genes in GO annotation: sterol biosynthesis (GO:0016126)” value amounted to 6 and the “# genes in GO annotation: sterol metabolism (GO:0016125)” value is recorded as 8. Further, under “suppressed genes”, the “# genes in GO annotation: M phase (GO:0000279)” value is 17; the “# genes in GO annotation: M phase of mitotic cell cycle (GO:0000087)” value turned out to be 15; the “# genes in GO annotation: RNA splicing, via transesterification reactions (GO:0000375)” value was determined as 9; the “# genes in GO annotation: RNA splicing, via transesterification reactions with bulged adenosine as nucleophile (GO:0000377)” value stood at 9. Besides, for the setting “suppressed genes”, the “# genes in GO annotation: cell cycle (GO:0007049)” value was found to be 35, the “# genes in GO annotation: mRNA metabolism (GO:0016071)” value turned out to be 13, the “# genes in GO annotation: mitosis (GO:0007067)” value was found to be 15 and the “# genes in GO annotation: mitotic cell cycle (GO:0000278)” value turned out to be 19. Besides, where the note is “suppressed genes”, the “# genes in GO annotation: nuclear mRNA splicing, via spliceosome (GO:0000398)” value was 9 and the “# genes in GO annotation: regulation of cell cycle (GO:0000074)” value stood at 22.
